The inhibition is the relative decrease from the control value, in per cent.

Among the data in ChEMBL document CHEMBL4800729 (2021) are inhibition values, retold here.

Experiment [1] has as its target Thromboxane-A synthase (Homo sapiens) (UniProt P24557). Kind of experiment: Inhibition of Thromboxane Synthase at compound concentration of 10.0 uM in the Eurofins-Panlabs enzyme assay (Eurofins_assay_194020). Also noted: substrate with concentration. Conditions: Compound concentration 10.0 uM.
For experiment [2], the target named is Activated CDC42 kinase 1 (Homo sapiens) (UniProt Q07912). Kind of experiment: ACK1(h) Millipore kinase panel. Particulars: Compound concentration 1.0 uM.
Activated CDC42 kinase 1 (Homo sapiens), sequence (Q07912 whole entry, looked up): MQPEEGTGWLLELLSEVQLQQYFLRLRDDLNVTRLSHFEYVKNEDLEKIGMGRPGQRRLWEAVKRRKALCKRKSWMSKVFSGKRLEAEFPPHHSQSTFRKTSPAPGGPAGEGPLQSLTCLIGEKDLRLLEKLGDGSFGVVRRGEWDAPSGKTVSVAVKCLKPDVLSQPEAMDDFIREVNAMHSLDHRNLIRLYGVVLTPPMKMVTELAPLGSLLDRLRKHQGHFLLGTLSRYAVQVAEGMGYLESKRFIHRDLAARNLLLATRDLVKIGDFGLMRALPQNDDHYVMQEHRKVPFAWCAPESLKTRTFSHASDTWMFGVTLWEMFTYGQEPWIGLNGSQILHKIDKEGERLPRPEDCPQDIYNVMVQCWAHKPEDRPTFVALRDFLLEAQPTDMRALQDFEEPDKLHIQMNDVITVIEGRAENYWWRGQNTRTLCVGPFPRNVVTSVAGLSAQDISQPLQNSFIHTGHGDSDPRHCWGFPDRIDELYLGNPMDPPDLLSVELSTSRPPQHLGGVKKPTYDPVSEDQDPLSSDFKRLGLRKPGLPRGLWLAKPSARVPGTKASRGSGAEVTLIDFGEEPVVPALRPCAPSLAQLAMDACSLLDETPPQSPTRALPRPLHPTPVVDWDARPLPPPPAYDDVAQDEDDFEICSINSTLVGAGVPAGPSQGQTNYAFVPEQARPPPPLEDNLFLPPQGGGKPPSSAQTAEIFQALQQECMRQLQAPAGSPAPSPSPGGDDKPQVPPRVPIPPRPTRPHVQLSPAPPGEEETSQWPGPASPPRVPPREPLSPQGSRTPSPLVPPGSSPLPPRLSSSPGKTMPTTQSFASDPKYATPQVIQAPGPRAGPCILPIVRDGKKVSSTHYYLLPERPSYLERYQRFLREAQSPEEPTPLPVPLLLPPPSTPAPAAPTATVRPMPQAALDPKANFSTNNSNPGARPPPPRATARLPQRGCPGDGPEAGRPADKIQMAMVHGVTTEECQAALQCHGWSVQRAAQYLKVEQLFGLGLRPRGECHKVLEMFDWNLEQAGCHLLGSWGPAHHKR
Experiment [3] addresses Calcium/calmodulin-dependent protein kinase type II subunit beta (Homo sapiens) (UniProt Q13554). Kind of experiment: CaMKIIbeta(h) Millipore kinase panel. Conditions: Compound concentration 1.0 uM.
Experiment [4] deals with Transient receptor potential cation channel subfamily M member 7 (Homo sapiens) (UniProt Q96QT4). Kind of experiment: ChaK1(h) Millipore kinase panel. Particulars: Compound concentration 1.0 uM.
The target in experiment [5] is Casein kinase I isoform alpha (Homo sapiens) (UniProt P48729). In words: CK1alpha(h) Millipore kinase panel. Conditions: Compound concentration 1.0 uM.
Casein kinase I isoform alpha (Homo sapiens), sequence (P48729 2-337 limits assumed): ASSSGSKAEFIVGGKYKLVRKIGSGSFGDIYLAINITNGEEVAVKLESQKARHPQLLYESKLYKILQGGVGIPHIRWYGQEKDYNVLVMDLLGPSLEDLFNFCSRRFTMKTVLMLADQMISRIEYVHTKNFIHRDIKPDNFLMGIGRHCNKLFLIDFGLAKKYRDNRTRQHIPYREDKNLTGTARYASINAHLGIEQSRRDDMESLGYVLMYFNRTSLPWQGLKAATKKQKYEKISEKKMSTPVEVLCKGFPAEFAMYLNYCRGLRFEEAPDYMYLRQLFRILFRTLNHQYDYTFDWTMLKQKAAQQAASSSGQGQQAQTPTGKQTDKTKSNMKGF
The target of experiment [6] is Epidermal growth factor receptor (Homo sapiens) (UniProt P00533). Kind of experiment: EGFR(h) Millipore kinase panel. Conditions: Compound concentration 1.0 uM.
Experiment [7] addresses Serine/threonine-protein kinase MARK1 (Homo sapiens) (UniProt Q9P0L2). In words: MARK1(h) Millipore kinase panel. Conditions: Compound concentration 1.0 uM.
In experiment [8] the target is Tyrosine-protein kinase Mer (Homo sapiens) (UniProt Q12866). In words: Mer(h) Millipore kinase panel. Conditions: Compound concentration 1.0 uM.
Experiment [9] deals with Myosin-IIIb (Homo sapiens) (UniProt Q8WXR4). Kind of experiment: MYO3B(h) Millipore kinase panel. Particulars: Compound concentration 1.0 uM.
For experiment [10], the target named is cAMP-dependent protein kinase catalytic subunit beta (Homo sapiens) (UniProt P22694). Kind of experiment: PKACbeta(h) Millipore kinase panel. Particulars: Compound concentration 1.0 uM.
Experiment [11] has as its target SRSF protein kinase 1 (Homo sapiens) (UniProt Q96SB4). In words: SRPK1(h) Millipore kinase panel. Conditions: Compound concentration 1.0 uM.
Experiment [12] addresses TGF-beta receptor type-2 (Homo sapiens) (UniProt P37173). In words: TGFBR2(h) Millipore kinase panel. Conditions: Compound concentration 1.0 uM.
The target in experiment [13] is NT-3 growth factor receptor (Homo sapiens) (UniProt Q16288). Kind of experiment: TrkC(h) Millipore kinase panel. Conditions: Compound concentration 1.0 uM.
NT-3 growth factor receptor (Homo sapiens), sequence (Q16288 32-839 limits assumed): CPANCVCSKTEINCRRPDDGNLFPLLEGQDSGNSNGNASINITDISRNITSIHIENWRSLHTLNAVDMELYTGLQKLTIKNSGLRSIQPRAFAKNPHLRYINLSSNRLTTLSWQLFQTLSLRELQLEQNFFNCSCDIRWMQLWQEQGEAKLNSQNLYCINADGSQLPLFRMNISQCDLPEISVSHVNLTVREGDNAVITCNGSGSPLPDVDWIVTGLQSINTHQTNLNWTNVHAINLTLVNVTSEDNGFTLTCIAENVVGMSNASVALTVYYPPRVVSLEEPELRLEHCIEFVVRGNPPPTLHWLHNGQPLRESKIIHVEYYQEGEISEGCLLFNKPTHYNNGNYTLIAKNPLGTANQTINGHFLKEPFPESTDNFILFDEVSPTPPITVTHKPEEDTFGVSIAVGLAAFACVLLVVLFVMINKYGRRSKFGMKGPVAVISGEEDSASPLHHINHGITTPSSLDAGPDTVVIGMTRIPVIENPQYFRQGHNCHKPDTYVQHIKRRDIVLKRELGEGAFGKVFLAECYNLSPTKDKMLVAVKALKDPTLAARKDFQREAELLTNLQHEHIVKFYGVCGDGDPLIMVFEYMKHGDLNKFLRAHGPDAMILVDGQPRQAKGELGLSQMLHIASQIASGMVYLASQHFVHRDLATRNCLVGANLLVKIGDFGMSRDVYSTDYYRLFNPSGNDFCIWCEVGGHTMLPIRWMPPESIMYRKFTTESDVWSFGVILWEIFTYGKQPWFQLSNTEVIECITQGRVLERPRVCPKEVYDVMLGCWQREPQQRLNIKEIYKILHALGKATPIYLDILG
For experiment [14], the target named is Serine/threonine-protein kinase ULK1 (Homo sapiens) (UniProt O75385). Kind of experiment: ULK1(h) Millipore kinase panel. Particulars: Compound concentration 1.0 uM.
In experiment [15] the target is Serine/threonine-protein kinase VRK1 (Homo sapiens) (UniProt Q99986). In words: VRK1(h) Millipore kinase panel. Conditions: Compound concentration 1.0 uM.
Serine/threonine-protein kinase VRK1 (Homo sapiens), sequence (Q99986 whole entry): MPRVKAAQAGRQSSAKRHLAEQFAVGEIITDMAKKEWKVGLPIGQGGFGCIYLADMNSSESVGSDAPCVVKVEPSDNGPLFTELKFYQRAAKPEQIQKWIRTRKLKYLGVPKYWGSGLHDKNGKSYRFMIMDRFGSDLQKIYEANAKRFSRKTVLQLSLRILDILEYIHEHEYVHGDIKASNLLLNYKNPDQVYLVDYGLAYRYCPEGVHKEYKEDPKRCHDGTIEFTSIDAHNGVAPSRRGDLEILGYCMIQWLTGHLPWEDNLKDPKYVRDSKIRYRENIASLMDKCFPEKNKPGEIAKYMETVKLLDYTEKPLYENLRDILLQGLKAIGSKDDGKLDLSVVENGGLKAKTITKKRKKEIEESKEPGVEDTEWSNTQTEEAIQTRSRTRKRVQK
Experiment [16] addresses Endothelin receptor type B (Homo sapiens) (UniProt P24530). Particulars: Compound concentration 10.0 uM.
The target in experiment [17] is Estrogen receptor (Homo sapiens) (UniProt P03372). Conditions: Compound concentration 10.0 uM.
The target of experiment [18] is Muscarinic acetylcholine receptor M3 (Homo sapiens) (UniProt P20309). Particulars: Compound concentration 10.0 uM.
Muscarinic acetylcholine receptor M3 (Homo sapiens), sequence (P20309 whole entry, looked up): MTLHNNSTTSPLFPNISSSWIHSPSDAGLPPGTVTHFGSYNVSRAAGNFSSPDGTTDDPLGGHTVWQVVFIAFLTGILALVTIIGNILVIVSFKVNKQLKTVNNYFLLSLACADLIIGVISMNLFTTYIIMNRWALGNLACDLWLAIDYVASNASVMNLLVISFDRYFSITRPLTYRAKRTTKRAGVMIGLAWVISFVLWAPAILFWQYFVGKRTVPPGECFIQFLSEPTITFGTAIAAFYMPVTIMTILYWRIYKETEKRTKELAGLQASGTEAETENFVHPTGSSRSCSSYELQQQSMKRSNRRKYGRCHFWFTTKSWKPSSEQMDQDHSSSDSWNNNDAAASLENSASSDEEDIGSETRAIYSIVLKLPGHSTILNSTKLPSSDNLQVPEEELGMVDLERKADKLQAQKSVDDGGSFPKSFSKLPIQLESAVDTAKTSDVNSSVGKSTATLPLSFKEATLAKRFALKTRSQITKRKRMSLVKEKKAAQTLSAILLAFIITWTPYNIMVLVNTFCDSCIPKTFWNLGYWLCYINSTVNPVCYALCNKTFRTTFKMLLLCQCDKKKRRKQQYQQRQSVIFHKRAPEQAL

TGF-beta receptor type-2 (Homo sapiens), sequence (P37173 whole entry): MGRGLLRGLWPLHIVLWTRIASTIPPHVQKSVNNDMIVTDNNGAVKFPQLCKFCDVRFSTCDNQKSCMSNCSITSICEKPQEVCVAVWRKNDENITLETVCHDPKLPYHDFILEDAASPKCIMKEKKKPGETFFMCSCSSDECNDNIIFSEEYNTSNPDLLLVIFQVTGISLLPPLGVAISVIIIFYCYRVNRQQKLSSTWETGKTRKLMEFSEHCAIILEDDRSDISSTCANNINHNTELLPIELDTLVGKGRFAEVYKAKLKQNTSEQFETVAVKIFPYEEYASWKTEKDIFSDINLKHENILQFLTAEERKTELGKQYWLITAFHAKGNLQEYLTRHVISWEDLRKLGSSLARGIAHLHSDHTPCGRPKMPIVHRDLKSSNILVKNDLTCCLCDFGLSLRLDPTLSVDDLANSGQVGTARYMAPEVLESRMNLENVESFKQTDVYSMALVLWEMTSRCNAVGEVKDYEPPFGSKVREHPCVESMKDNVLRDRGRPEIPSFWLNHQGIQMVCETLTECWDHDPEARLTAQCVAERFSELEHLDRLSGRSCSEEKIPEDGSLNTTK
SRSF protein kinase 1 (Homo sapiens), sequence (Q96SB4 whole entry): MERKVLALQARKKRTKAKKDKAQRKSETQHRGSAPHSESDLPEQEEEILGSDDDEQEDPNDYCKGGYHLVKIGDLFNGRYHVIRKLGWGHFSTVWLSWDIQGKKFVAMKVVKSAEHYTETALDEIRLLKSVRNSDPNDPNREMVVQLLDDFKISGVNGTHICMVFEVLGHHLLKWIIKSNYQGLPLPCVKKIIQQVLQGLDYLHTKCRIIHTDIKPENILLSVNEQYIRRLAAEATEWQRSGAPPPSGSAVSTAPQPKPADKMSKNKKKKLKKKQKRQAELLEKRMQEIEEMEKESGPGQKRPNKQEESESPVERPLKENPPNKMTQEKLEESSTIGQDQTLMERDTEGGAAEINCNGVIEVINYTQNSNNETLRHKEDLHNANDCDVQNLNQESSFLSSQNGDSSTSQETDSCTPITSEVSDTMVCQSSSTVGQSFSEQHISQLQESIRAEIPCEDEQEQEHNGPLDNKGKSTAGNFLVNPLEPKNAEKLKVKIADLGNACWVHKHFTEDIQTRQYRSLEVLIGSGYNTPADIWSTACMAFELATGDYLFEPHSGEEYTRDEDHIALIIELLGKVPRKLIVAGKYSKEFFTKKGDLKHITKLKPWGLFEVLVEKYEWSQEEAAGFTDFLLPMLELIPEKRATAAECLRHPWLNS
Endothelin receptor type B (Homo sapiens), sequence (P24530 whole entry): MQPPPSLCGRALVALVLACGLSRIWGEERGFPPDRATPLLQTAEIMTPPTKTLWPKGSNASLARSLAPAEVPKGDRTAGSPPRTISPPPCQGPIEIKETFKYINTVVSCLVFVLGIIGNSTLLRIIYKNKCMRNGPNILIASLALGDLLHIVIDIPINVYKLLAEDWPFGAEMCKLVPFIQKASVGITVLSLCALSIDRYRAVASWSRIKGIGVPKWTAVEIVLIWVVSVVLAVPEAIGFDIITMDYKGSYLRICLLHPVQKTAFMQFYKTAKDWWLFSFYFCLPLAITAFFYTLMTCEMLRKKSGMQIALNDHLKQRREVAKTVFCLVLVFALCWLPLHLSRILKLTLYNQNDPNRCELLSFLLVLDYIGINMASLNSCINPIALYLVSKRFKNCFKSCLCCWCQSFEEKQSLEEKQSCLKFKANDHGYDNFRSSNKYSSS

Regarding `CC[C@@H](Nc1c(C#N)c(-c2ccc(-c3cccc(C)c3F)cc2)nc2cnccc12)C(=O)O` [BAY-091], the inhibition in experiment [1] was 98%; in [2], 10.5%; in [3], 8.65%; in [4], 0.08%; in [5], 3.17%; in [6], 10.8%. Also, the inhibition is 2.52% in experiment [7]; 10.2% in [8]; 18.1% in [9]; 6.73% in experiment [10]; 3.4% in experiment [11]; 19.3% in [12]. For the same molecule, the inhibition in experiment [13] is 14.8%; in experiment [14] it was 14.2%; in experiment [15], 3.04%; in [16], 1%; in experiment [17] it was 10%; in [18], 0%.
